According to patent publication US10273278B2, “Epitope recognized by anti-interferon gamma autoantibodies in patients with disseminated mycobacterial infections and the application therefor” (priority 2015, dated 2019):

Legend:
WKY/NcrlNarl rats = assay: Immunization of rats with Noc2 or IFNr peptide conjugated with OVA; type: in vivo, rat; settings: 0.25 mg peptide-OVA, booster every two weeks
Protocol: The inventor immunized WKY/NcrlNarl rats with 0.25 mg Noc2 or IFNr[…] peptide (Noc2: […] (SEQ NO: 31); IFNr: […] (SEQ NO: 32)) conjugated with ovalbumin (OVA) and gave a booster dose every two weeks after the initial injection (day 0). After 70 days, the inventor checked the antibody production level by dot blot or ELISA at each injection. All rats were sacrificed ten days after the tenth injection (day 136) and whole blood was collected. After collection of the whole blood, the blood was allowed to clot by leaving it undisturbed at room temperature 15 minutes. Clots were removed by centrifuging at 1500 g for 10 minutes in a refrigerated centrifuge. Sera were aliquoted and stored at −20° C. for further use.
Blood sera from pre-immunized rats (n=6), Noc2 peptide-immunized rats (n=4) and Peptide 6-immunized rats (n=2) were mapped to control peptide, Peptide 6 and Noc2 peptide from Aspergillus terreus or Aspergillus fumigatus. This is represented as the mean optical density (OD) at 405 nm.

THP1 cells = assay: p-STAT1 in THP1 cells pre-incubated with sera of immunized rats and treated with IFNr; type: cell-based; settings: 50% sera
anti-IFNr AutoAbs [1] = assay: Protein mapping ELISA of recombinant IFNr proteins with blood plasma; type: binding, human; settings: for recognition of recombinant IFNr protein by blood plasma (ELISA): plasma from group-1 patients
anti-IFNr AutoAbs [2] = assay: Immunoblotting (Western blot / dot blot) with patient or control plasma; type: binding, human; settings: for recognition by anti-IFNr AutoAbs in Western blot and dot blot: plasma from anti-IFNr AutoAbs patients; for binding of plasma from healthy controls in Western blot: plasma from healthy donors
Protocol: Recombinant IFNr[…] (R&D Systems) and different truncated forms of recombinant IFNr[…] were subjected to SDS-PAGE using a 10% gel under reducing conditions at 120 V for 2 hours. The proteins were transferred to a PVDF membrane (Invitrogen Life Technologies) at 250 mA for 2 hours. The membrane was blocked in 5% human normal serum albumin (Aventis) in TBS with 0.1% Tween 20 overnight at 4° C. The membrane was incubated with a 1/100 dilution of patient or control blood plasma for 3 hours at room temperature. After being washed three times, the membrane was incubated in a 1/10,000 dilution of mouse anti-human IgG conjugated with horseradish peroxidase (Jackson ImmunoResearch Laboratories) for 1 hour at room temperature. After being washed three times, the membrane was developed with ECL (Merck Millipore).
Plasma from 3 healthy donors had no response to either IFNr1-131 or EE-IFNr.

anti-IFNr AutoAbs [3] = assay: Epitope mapping ELISA of synthetic peptides with blood plasma; type: binding, human; settings: for recognition of synthetic peptide by blood plasma: plasma from anti-IFNr AutoAbs patients (group-1), 1:100, OD 405 nm
Protocol: Clear polystyrene 96-well flat bottom plates (Nunc) were coated with 100 μL of peptide solution (5 μg/mL) with b-carbonate buffer (pH 9.6) at 4° C. overnight. After blocking the remaining binding sites with 5% human normal serum albumin (Aventis) in PBS, the plates were incubated at 37° C. for 1 hour. Afterward, the plates were washed 3 times with 0.5% Tween 20 in PBS.
Blood plasma samples were added at a 1:100 dilution, in PBS containing 5% human normal serum albumin. Following incubation at room temperature for 2 hours and being washed 3 times, goat anti-human IgG Fcr fragment specific conjugated with alkaline phosphate (Jackson ImmunoResearch Laboratories), was added at a 1:5000 dilution, and the plates were kept for 1 hour at room temperature. Finally, after being washed 5 times, 100 μL of p-Nitrophenyl Phosphate (pNPP) was added and the reaction was read at 405 nm by a VICTOR X3 Multilabel Plate Reader (PerkinElmer) after 30 minutes of incubation at 37° C.

anti-IFNr AutoAbs [4] = assay: Competition ELISA against coated peptide 6; type: binding, human; settings: patient plasma pre-incubated with 5-30 μg/mL competitor peptide
Protocol: To evaluate the specificity of the reaction, a competition ELISA experiment was performed. Each plasma sample (1:100 dilutions) was pre-incubated with different concentrations (5-30 μg/mL) of the competition peptides overnight at 4° C. Subsequently, all plasma and different concentrations competition peptides mixture samples were examined following the epitope mapping protocol. Peptide 6 was coated with b-carbonate buffer (pH 9.6) at 4° C. overnight. After blocking at 37° C. for 1 hour, all pre-incubated plasma and different concentrations competition peptides mixture samples were added in duplicate. Following 2 hours of room temperature incubation, goat anti-human IgG Fcr fragment specific conjugated with alkaline phosphate, was added. Finally, 100 μL of pNPP was added and the reaction was read at 405 nm by a VICTOR X3 Multilabel Plate Reader (PerkinElmer) after 30 minutes of incubation at 37° C.

p-STAT1 in whole blood = p-STAT1 in whole blood ex vivo; type: cell-based, human; settings: for p-STAT1 signaling restored / up-regulated: IFNr AutoAbs patients' whole blood; for p-STAT1 signal: controls' whole blood
Text: Representative histograms (FIG. 4f(1)-FIG. 4f(2)) and MFI (median fluorescence intensity) (FIG. 4g) are shown.

p-STAT1 in PBMCs = assay: p-STAT1 intracellular stain in PBMCs (CD14+ gated); type: cell-based, human; settings: for p-STAT1 signaling restored / up-regulated: IFNr AutoAbs patients' PBMCs pre-incubated with 10% autologous blood plasma; for phosphorylation of STAT1: controls' PBMCs pre-incubated with 20% blood plasma with anti-IFNr AutoAbs from patients; for p-STAT1 signaling: controls' PBMCs, 20% control blood plasma
Protocol: A total of 10^6 PBMCs in 200 μL RPMI-1640 with 10% FBS and 1% penicillin/streptomycin was used. […] After 30 minutes of stimulation in a 37° C. incubator, monocytes were identified by FITC-CD14 (BD Pharmingen) surface staining. Fixed by adding 250 μL of FASC lysing solution (BD Pharmingen) and incubated at room temperature for 15 minutes in the dark, followed by two washes with PBS. To permeabilize the cells, 500 μl of ice-cold absolute methanol was added to each tube and incubated for 15 minutes on ice in the dark, followed by two washes with PBS. Next, PE-phospho-STAT1 (pY701) antibody (BD Pharmingen) was added, followed by 30 minutes incubation on ice in the dark. Again, cells were washed with 2 mL of PBS before resuspension in the 500 μL of PBS. Data were collected with a FACSVerse flow cytometer (BD Biosciences) and analyzed using FACSuite software (BD Biosciences).
Representative histograms (FIG. 2c(1)-FIG. 2c(2)) and MFI (median fluorescence intensity) (FIG. 2d) are shown.
After being gated on the CD14^+, p-STAT-1 levels were determined by flow cytometry with the p-STAT-1 monoclonal antibody. Representative histograms (FIG. 4a(1)-FIG. 4a(2)) and MFI (median fluorescence intensity) (FIG. 4b) are shown.

[5] = tested on: HLA-DR expression in PBMCs; assay: HLA-DR expression in PBMCs (CD14+ gated); type: cell-based, human; settings: IFNr AutoAbs patients' PBMCs pre-incubated with 10% autologous plasma
Protocol: A total of 10^6 PBMCs in 200 μL RPMI-1640 with 10% FBS and 1% penicillin/streptomycin was used. Cells were then stimulated with 500 IU IFNr, IFNr_1-131 or EE-IFNr⋅ in 160 μL RPMI-1640 pre-incubated with 40 μL of normal blood plasma or patient blood plasma for 10 min at room temperature. After 24 hours of stimulation in a 37° C. incubator, monocytes were identified by FITC-CD14 (BD Pharmingen) surface staining. Next, PE-HLA-DR antibody (BD Pharmingen) was added followed by 30 minutes of incubation on ice in the dark. Cells were again washed with 2 ml of PBS before resuspension in 500 μl of PBS. Data were collected with a FACSVerse flow cytometer (BD Biosciences) and analyzed using FACSuite software (BD Biosciences).
After being gated on the CD14^+, HLA-DR expression levels were determined by flow cytometry with the HLA-DR monoclonal antibody. Representative histograms (FIG. 4d(1)-FIG. 4d(2)) and MFI (median fluorescence intensity) (FIG. 4e) are shown.

IL-12p40 in PBMCs = type: cell-based, human
anti-IFNr AutoAbs [6] = assay: Detection and titration of IFNr neutralizing autoantibodies (patient plasma, IFNr ELISA); type: binding, human; settings: 200 pg/mL IFNr incubated with serially diluted patient plasma
Protocol: Blood plasma from patients and donors was serially diluted (10^−1 to 10^−6) and incubated with recombinant human IFNr at a final concentration of 200 pg/mL for 1 hour at 37° C. The IFNr level was measured with a human IFNr ELISA kit from BD Biosciences according to the manufacturer's recommendations. All experiments were performed in duplicate.

Molecule: CTPKTGKRKRSEQ
- antibodies developed after immunization (WKY/NcrlNarl rats): developed anti-Noc2 antibodies that cross-reacted with human IFNr
- p-STAT1 signaling after recombinant IFNr in presence of sera of immunized rats (THP1 cells): decreased up-regulation of p-STAT1 signaling

Molecule: IFNr_1-144: full-length recombinant IFNr expressed in Schneider 2 cells [reference compound]
- recognition of recombinant IFNr protein by blood plasma (ELISA) (anti-IFNr AutoAbs [1]): recognized by blood plasma isolated from the group-1 patients
- recognition by anti-IFNr AutoAbs in Western blot and dot blot (anti-IFNr AutoAbs [2]): recognized by anti-IFNr AutoAbs

Molecule: KKDVTPKTGKRKRSEQQKDE (KKDVPPKTGKRKRSEQQKDE; listed as Aspergillus terreus) [Aspergillus Noc2 peptide]
- recognition of synthetic peptide by blood plasma (anti-IFNr AutoAbs [3]): recognized by blood plasma isolated from patients with anti-IFNr AutoAbs
- binding of synthetic peptide by blood plasma (anti-IFNr AutoAbs [3]; plasma from mycobacteria infected patients without AutoAbs / healthy controls): did not react
- competition for AutoAbs binding to coated peptide 6 (anti-IFNr AutoAbs [4]): compete for IFNr AutoAbs binding with peptide 6 in a dose dependent manner

Molecule: peptide 6: 30-mer synthetic peptide of human IFNr, P114-143 (IQVMAELSPAAKTGKRKRSQMLFRGRRASQ; UniProt P01579 137-166, looked up, fragment)
- recognition of synthetic peptide by blood plasma (anti-IFNr AutoAbs [3]): recognized in the blood plasma isolated from the 12 patients in group-1
- recognition of synthetic peptide by non-neutralizing AutoAbs (anti-IFNr AutoAbs [3]; plasma from healthy donors with non-neutralizing IFNr AutoAbs): did not recognize
- competition for AutoAbs binding to coated peptide 6 (anti-IFNr AutoAbs [4]): competition for the binding with coated peptide 6 in a dose dependent manner

Molecule: recombinant IFNr: Recombinant human IFNr (R&D Systems), commercial wild type [reference compound]
- p-STAT1 signaling restored / up-regulated (p-STAT1 in whole blood): up-regulated p-STAT1 signaling was not found
- p-STAT1 signal (p-STAT1 in whole blood): up-regulated
- p-STAT1 signaling restored / up-regulated (p-STAT1 in PBMCs): up-regulated p-STAT1 signaling cannot be observed
- phosphorylation of STAT1 (p-STAT1 in PBMCs): not
- p-STAT1 signaling (p-STAT1 in PBMCs): Up-regulation of the p-STAT1 signaling was observed
- HLA-DR expression levels restored / up-regulated [5]: up-regulated HLA-DR expression levels were not observed
- IL-12p40 expression (IL-12p40 in PBMCs): elevation of IL-12p40 expression couldn't be observed

B1: mIFNr: murine IFNr (protein, UniProt P01580 23-155, looked up)
Interferon gamma: HGTVIESLESLNNYFNSSGIDVEEKSLFLDIWRNWQKDGDMKILQSQIISFYLRLFEVLKDNQAISNNISVIESHLITTFFSNSKAKKDAFMSIAKFEVNNPQVQRQAFNELIRVVHQLLPESSLRKRKRSRC
- blocking of IFNr detection by plasma from patients with AutoAbs (plasma dilution) (anti-IFNr AutoAbs [6]): no blocking activity
- blocking of IFNr detection by plasma from patients with AutoAbs (plasma dilution) (anti-IFNr AutoAbs [6]; listed as murine IFNr): did not show blocking activity

B2: IFNr_1-131: truncated recombinant human IFNr, deletion clone a.a. 1-131, expressed in Schneider 2 cells (protein)
chain: QDPYVKEAENLKKYFNAGHSDVADNGTLFLGILKNWKEESDRKIMQSQIVSFYFKLFKNFKDDQSIQKSVETIKEDMNVKFFNSNKKKRDDFEKLTNYSVTDLNVQRKAIHELIQVMAELSPAAKTGKRKR
modifications: left off: small tags and cut ends
notes: truncated recombinant human IFNr, deletion clone a.a; 1-131, expressed in Schneider 2 cells
- p-STAT1 signaling restored / up-regulated (p-STAT1 in whole blood): up-regulated p-STAT1 signaling was not found
- p-STAT1 signal (p-STAT1 in whole blood): up-regulated
- affinity of anti-IFNr AutoAbs by ELISA (anti-IFNr AutoAbs [1]; patients' blood plasma, OD 405 nm): bound to IFNr_1-131 in a dose dependent manner
- recognition of recombinant IFNr protein by blood plasma (ELISA) (anti-IFNr AutoAbs [1]): recognized by blood plasma isolated from the group-1 patients
- p-STAT1 signaling restored / up-regulated (p-STAT1 in PBMCs): up-regulated p-STAT1 signaling cannot be observed
- phosphorylation of STAT1 (p-STAT1 in PBMCs): not
- p-STAT1 signaling (p-STAT1 in PBMCs): Up-regulation of the p-STAT1 signaling was observed
- HLA-DR expression levels restored / up-regulated [5]: up-regulated HLA-DR expression levels were not observed
- IL-12p40 expression (IL-12p40 in PBMCs): elevation of IL-12p40 expression couldn't be observed
- recognition by anti-IFNr AutoAbs in Western blot and dot blot (anti-IFNr AutoAbs [2]): recognized by anti-IFNr AutoAbs
- binding of plasma from healthy controls in Western blot (anti-IFNr AutoAbs [2]): no response
- binding of plasma from healthy controls in Western blot (anti-IFNr AutoAbs [2]; listed as WT IFNr_1-131): could not bind
